Measurements: US10519159B2, “Antiviral aliphatic ester prodrugs of tenofovir” (Merck Sharp & Dohme Corp., priority 2016, dated 2019)
Read-outs that look alike come from different tables or passages of the source.

Columns and labels:
[1] = Prodrug stability assay in bio-relevant media (FaSSIF with pancreatin), GI tract stability; assay type: in vitro ADME
Experimental: Prodrug Stability Assay in Bio-Relevant Media
The following assay was employed to evaluate the stability of the prodrugs in simulated gastrointestinal tract conditions. Preparation of fasted state simulated intestinal fluid (FaSSIF) using Phares SIF Powder was carried out according to protocols from Phare Drug Delivery AG (Baselland, Switzerland). For sample preparation, 10 μL stock solutions (10 mM) of prodrug substance in DMSO was added to 990 μL of 0.5 mg/mL Pancreatin solution (Fisher CAS #8049-47-6) in FaSSIF. Two samples were prepared for each compound. If the sample was a clear solution, it was directly analyzed by HPLC. If the sample was not clear, the sample was […], maintained at 37° C. and observed 5 h later. If the sample was clear, HPLC analysis was directly performed. If the sample was still not clear, the sample was diluted with 100% ACN and assayed by HPLC. All the samples were vortexed for 3 min and observed before injection. For the diluted samples, the area is multiplied by a dilution factor when the data is analyzed. The analysis was carried out with an Agilent 1100 series HPLC with autosampler. The column was a Poroshell 120 EC-C18, 4.6×50 mm, 2.7 μm. The flow rate was 1.8 mL/min, and the injection volume was 5 or 10 μL. UV detection was in the range 210-400 nm. The mobile phase consisted of solvent A (water plus 10 mM tetrabutylammonium bromide) and solvent B (acetonitrile) with a gradient of: 90% solvent A at 0 min, changing to 95% solvent B over 6 min, maintaining for 1.5 min, then reverting to 90% solvent A over 1.6 min. The HPLC peak area of the prodrug at 5 h was divided by the HPLC peak area of the prodrug at 0 h, to generate the % claimed parent ratio, which is summarized in Table 1 for gastrointestinal (GI) Tract stability.

[2] = test system: HIV-1 (H9/IIIB strain); assay: Multiple round HIV-1 infection assay (Viking assay) in MT4-GFP cells; assay type: cell-based
Experimental: Assessing Antiviral Potency in a Multiple Round HIV-1 Infection Assay (Viking Assay)
The antiviral activity of the tenofovir prodrugs of the Examples herein was assessed in an assay that measures the rate of replication of HIV in cell culture, termed the Viking assay (Viral KINetics in Green cells) and performed as follows. HIV-1 replication was monitored using MT4-gag-GFP clone D3 (hereafter designated MT4-GFP), which are MT-4 cells modified to harbor a GFP reporter gene, the expression of which is dependent on the HIV-1 expressed proteins tat and rev. Productive infection of an MT4-GFP cell with HIV-1 results in GFP expression approximately 24 h post-infection. MT4-GFP cells were maintained at 37° C./5% CO2/90% relative humidity in RPMI 1640 supplemented with 10% fetal bovine serum, 100 U/ml penicillin/streptomycin, and 400 μg/ml G418 to maintain the reporter gene. For infections, MT4-GFP cells were placed in the same medium lacking G418 and infected overnight with HIV-1 (H9/IIIB strain) virus at an approximate multiplicity of infection of 0.01 in the same incubation conditions. Cells were then washed and re-suspended in either RPMI 1640 supplemented with 10% or 50% normal human serum (NHS) at 1.6×10^5 cells/mL (10% NHS or 50% NHS, respectively). Compound plates were prepared by dispensing compounds dissolved in DMSO into wells of 384 well poly-D-lysine-coated plates (0.2 μl/well) using an ECHO acoustic dispenser. Each compound was tested in a 10-point serial 3-fold dilution (typical final concentrations: 8.4 μM-0.42 nM). Controls included no inhibitor (DMSO only) and a combination of three antiviral agents (efavirenz, indinavir, an in-house integrase strand transfer inhibitor at final concentrations of 4 μM each). Cells were added (50 μL/well) to compound plates and the infected cells were maintained at 37° C./5% CO2/90% relative humidity.
Infected cells were quantified at two time points, ˜48 h and ˜72 h post-infection, by counting the number of green cells in each well using an Acumen eX3 scanner. The increase in the number of green cells over ˜24 h period gives the reproductive ratio, R0, which is typically 5-15 and has been shown experimentally to be in logarithmic phase (data not shown). Inhibition of R0 is calculated for each well, and IC50s determined by non-linear 4-parameter curve fitting.

[3] = Table 2, L-Ala comparison compounds, % parent at 5 h vs 0 h, pancreatin in FaSSIF
[4] = Human immunodeficiency virus 1, IIIB, Table 2, L-Ala comparison compounds, MT4-GFP cells, HIV-1 H9/IIIB, 10% normal human serum, read-out: Viking, IC50 (10% NHS)
[5] = Human immunodeficiency virus 1, IIIB, Table 2, L-Ala comparison compounds, MT4-GFP cells, HIV-1 H9/IIIB, 50% normal human serum, read-out: Viking, IC50 (50% NHS)
[6] = Table 1, MT4-GFP cells infected with HIV-1 H9/IIIB, 10% normal human serum, read-out: Viking, IC50 (10% NHS)
[7] = Table 1, MT4-GFP cells infected with HIV-1 H9/IIIB, 50% normal human serum, read-out: Viking, IC50 (50% NHS)
[8] = Table 1, % parent: HPLC peak area of prodrug at 5 h / 0 h, 0.5 mg/mL pancreatin in FaSSIF, 37° C.
[9] = Human immunodeficiency virus 1, IIIB, Table 1, MT4-GFP cells infected with HIV-1 H9/IIIB, 10% normal human serum, read-out: Viking, IC50 (10% NHS)
[10] = Human immunodeficiency virus 1, IIIB, Table 1, MT4-GFP cells infected with HIV-1 H9/IIIB, 50% normal human serum, read-out: Viking, IC50 (50% NHS)

Row | SMILES | IC50 [2, 6] [µM] | IC50 [2, 7] [µM] | other results
1 | CCCOC(=O)[C@H](C)NP(=O)(CO[C@H](C)Cn1cnc2c(N)ncnc21)OCCC(=O)OC(C)C (single isomer, unassigned) [Compound 15A, reference compound] | – | – | GI Tract stability [1, 3]: 60.1%; IC50 [2, 4]: 0.101 µM; IC50 [2, 5]: 1.22 µM
2 | CCCOC(=O)[C@H](C)NP(=O)(CO[C@H](C)Cn1cnc2c(N)ncnc21)OCC[C@H](C)C(=O)OC(C)C (single isomer, unassigned) [Compound 16A, reference compound] | – | – | GI Tract stability [1, 3]: 51.3%; IC50 [2, 4]: 0.213 µM; IC50 [2, 5]: 1.83 µM
3 | CCCOC(=O)[C@H](C)NP(=O)(CO[C@H](C)Cn1cnc2c(N)ncnc21)OCc1ccc(F)cc1C(=O)OC(C)C (single isomer, unassigned) [Compound 17A, reference compound] | – | – | GI Tract stability [1, 3]: 20.3%; IC50 [2, 4]: 0.035 µM; IC50 [2, 5]: 2.23 µM
4 | CCCOC(=O)C(C)(C)NP(=O)(CO[C@H](C)Cn1cnc2c(N)ncnc21)OCCC(=O)OC(C)C (single isomer, unassigned) [Example 1A] | 0.0232 | 0.103 | –
5 | CCCOC(=O)C(C)(C)NP(=O)(CO[C@H](C)Cn1cnc2c(N)ncnc21)OCCC(=O)OC(C)C (single isomer, unassigned) [Example 1B] | 0.00509 | 0.0138 | GI Tract stability [1, 8]: 99.35%
6 | CC(C)OC(=O)CCOP(=O)(CO[C@H](C)Cn1cnc2c(N)ncnc21)NC(C)(C)C(=O)OC(C)C (single isomer, unassigned) [Example 2A] | 0.0225 | 0.0698 | GI Tract stability [1, 8]: 100.30%
7 | CC(C)OC(=O)CCOP(=O)(CO[C@H](C)Cn1cnc2c(N)ncnc21)NC(C)(C)C(=O)OC(C)C (single isomer, unassigned) [Example 2B] | 0.601 | 0.622 | –
8 | CC(C)OC(=O)C1(COP(=O)(CO[C@H](C)Cn2cnc3c(N)ncnc32)NC(C)(C)C(=O)OC(C)C)CC1 (single isomer, unassigned) [Example 3A] | 0.0887 | 0.521 | –
9 | CC(C)OC(=O)C1(COP(=O)(CO[C@H](C)Cn2cnc3c(N)ncnc32)NC(C)(C)C(=O)OC(C)C)CC1 (single isomer, unassigned) [Example 3B] | 0.0168 | 0.0709 | –
10 | CCOC(=O)C1(CCOP(=O)(CO[C@H](C)Cn2cnc3c(N)ncnc32)NC(C)(C)C(=O)OC(C)C)CC1 (single isomer, unassigned) [Example 4A] | 0.252 | 0.756 | –
11 | CCOC(=O)C1(CCOP(=O)(CO[C@H](C)Cn2cnc3c(N)ncnc32)NC(C)(C)C(=O)OC(C)C)CC1 (single isomer, unassigned) [Example 4B] | 0.00784 | 0.0227 | GI Tract stability [1, 8]: 99.72%
12 | CC(C)OC(=O)[C@@H](C)CCOP(=O)(CO[C@H](C)Cn1cnc2c(N)ncnc21)NC(C)(C)C(=O)OC(C)C (single isomer, unassigned) [Example 5A] | 0.00752 | 0.0336 | –
13 | CC(C)OC(=O)[C@@H](C)CCOP(=O)(CO[C@H](C)Cn1cnc2c(N)ncnc21)NC(C)(C)C(=O)OC(C)C (single isomer, unassigned) [Example 5B] | 0.54 | 2.22 | –
14 | CCCOC(=O)C(C)(C)NP(=O)(CO[C@H](C)Cn1cnc2c(N)ncnc21)OCC[C@H](C)C(=O)OC(C)C (single isomer, unassigned) [Example 6A] | 0.00554 | 0.0155 | –
15 | CCCOC(=O)C(C)(C)NP(=O)(CO[C@H](C)Cn1cnc2c(N)ncnc21)OCC[C@H](C)C(=O)OC(C)C (single isomer, unassigned) [Example 6B] | 0.0731 | 0.246 | –
16 | CCCOC(=O)C(C)(C)N[P@@](=O)(CO[C@H](C)Cn1cnc2c(N)ncnc21)OCc1ccc(F)cc1C(=O)OC(C)C (single isomer, unassigned) [Example 7A] | – | – | IC50 [2, 9]: 0.107 µM; IC50 [2, 10]: 0.654 µM
17 | CCCOC(=O)C(C)(C)N[P@](=O)(CO[C@H](C)Cn1cnc2c(N)ncnc21)OCc1ccc(F)cc1C(=O)OC(C)C (single isomer, unassigned) [Example 7B] | – | – | GI Tract stability [1, 8]: 95.0%; IC50 [2, 9]: 0.00108 µM; IC50 [2, 10]: 0.00555 µM
18 | CCCCCOC(=O)C(C)(C)NP(=O)(CO[C@H](C)Cn1cnc2c(N)ncnc21)OCCC(=O)OC(C)C (single isomer, unassigned) [Example 8A] | 0.00092 | 0.0114 | GI Tract stability [1, 8]: 92.12%
19 | CCCCCOC(=O)C(C)(C)NP(=O)(CO[C@H](C)Cn1cnc2c(N)ncnc21)OCCC(=O)OC(C)C (single isomer, unassigned) [Example 8B] | 0.00759 | 0.0498 | GI Tract stability [1, 8]: 99.59%
20 | CC(C)OC(=O)C(C)(C)COP(=O)(CO[C@H](C)Cn1cnc2c(N)ncnc21)NC(C)(C)C(=O)OC(C)C (single isomer, unassigned) [Example 9A] | 0.173 | 0.562 | –
21 | CC(C)OC(=O)C(C)(C)COP(=O)(CO[C@H](C)Cn1cnc2c(N)ncnc21)NC(C)(C)C(=O)OC(C)C (single isomer, unassigned) [Example 9B] | 0.00834 | 0.0264 | GI Tract stability [1, 8]: 98.18%
22 | CC(C)OC(=O)C[C@H](C)OP(=O)(CO[C@H](C)Cn1cnc2c(N)ncnc21)NC(C)(C)C(=O)OC(C)C (single isomer, unassigned) [Example 10B] | 0.284 | 1.07 | –
23 | CCCOC(=O)C(C)(C)NP(=O)(CO[C@H](C)Cn1cnc2c(N)ncnc21)OCCc1cccc(C(=O)OC(C)C)c1 (single isomer, unassigned) [Example 11B] | 0.0458 | 0.302 | –
24 | CCCSC(=O)C(C)(C)NP(=O)(CO[C@H](C)Cn1cnc2c(N)ncnc21)OCCC(=O)OC(C)C (single isomer, unassigned) [Example 13B] | 0.0996 | 0.248 | –
25 | CCCOC(=O)C(C)(C)NP(=O)(CO[C@H](C)Cn1cnc2c(N)ncnc21)OCc1cccc(C(=O)OC(C)C)c1 (single isomer, unassigned) [Example 14B] | 0.0167 | 0.114 | –
26 | CCCOC(=O)[C@H](C)NP(=O)(CO[C@H](C)Cn1cnc2c(N)ncnc21)OCCC(=O)OC(C)C (stereo partly drawn) [Compound 15B, reference compound] | – | – | IC50 [2, 4]: 0.34 µM
27 | CCCOC(=O)[C@H](C)NP(=O)(CO[C@H](C)Cn1cnc2c(N)ncnc21)OCC[C@H](C)C(=O)OC(C)C (stereo partly drawn) [Compound 16B, reference compound] | – | – | IC50 [2, 4]: 0.73 µM
28 | CCCOC(=O)[C@H](C)NP(=O)(CO[C@H](C)Cn1cnc2c(N)ncnc21)OCc1ccc(F)cc1C(=O)OC(C)C (stereo partly drawn) [Compound 17B, reference compound] | – | – | IC50 [2, 4]: 0.57 µM
